From ChEMBL document CHEMBL2073935, “Cloning and functional characterization of a rat renal organic cation transporter isoform (rOCT1A)” (J Biol Chem, 1997) come the findings set out here.

The target of data set [1] is T1, Solute carrier family 22 member 1 (Rattus norvegicus, UniProt Q63089).
T1 sequence (Q63089 whole entry): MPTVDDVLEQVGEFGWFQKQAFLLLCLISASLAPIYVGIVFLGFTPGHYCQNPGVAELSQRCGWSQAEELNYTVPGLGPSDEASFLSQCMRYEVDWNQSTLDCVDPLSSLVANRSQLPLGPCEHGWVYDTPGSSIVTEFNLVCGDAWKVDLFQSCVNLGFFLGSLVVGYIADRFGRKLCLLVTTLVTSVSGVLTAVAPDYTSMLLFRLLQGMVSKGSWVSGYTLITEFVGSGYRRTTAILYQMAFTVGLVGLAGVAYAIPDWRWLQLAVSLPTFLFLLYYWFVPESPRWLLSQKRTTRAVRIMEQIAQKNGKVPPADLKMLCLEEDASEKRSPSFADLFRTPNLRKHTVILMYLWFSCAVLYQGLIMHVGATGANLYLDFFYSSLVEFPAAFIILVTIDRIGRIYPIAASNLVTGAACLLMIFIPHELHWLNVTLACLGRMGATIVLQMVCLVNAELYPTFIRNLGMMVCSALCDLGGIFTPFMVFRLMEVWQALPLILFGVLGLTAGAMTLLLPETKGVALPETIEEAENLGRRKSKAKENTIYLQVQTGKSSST
Briefly: TP_TRANSPORTER: inhibition of TEA uptake (TEA: 500 uM, PAH: 5000 uM) in OCT1A expressing Xenopus laevis oocytes. In kind it is functional, cell-based. The conditions noted are these: oocyte.

The target in data set [2] is T1, Solute carrier family 22 member 1. Briefly: TP_TRANSPORTER: inhibition of TEA uptake (TEA: 500 uM, Guanidine: 5000 uM) in OCT1A expressing Xenopus laevis oocytes. The format is functional, cell-based. The conditions noted are these: oocyte.
For data set [3] the target is unchanged. Briefly: TP_TRANSPORTER: inhibition of TEA uptake (basolateral to cell) (TEA: 500 uM, NMN: 5000 uM) in OCT1A expressing Xenopus laevis oocytes. In kind it is functional, cell-based. The conditions noted are these: oocyte.
Data set [4] has the same target. Put plainly: TP_TRANSPORTER: inhibition of TEA uptake (TEA: 500 uM, Procainamide: 5000 uM) in OCT1A expressing Xenopus laevis oocytes. The conditions noted are these: oocyte. The format is functional, cell-based.
Substrate in data set [5]: CC[N+](CC)(CC)CC
Put plainly: cells, lysate or membranes named.

For the molecule `Nc1ccc(C(=O)NCC(=O)O)cc1` [AMINOHIPPURIC ACID], the Activity entry in data set [1] was “inhibitor [+]”.

`N=C(N)N` [GUANIDINE]: the Activity result in data set [2] was “inhibitor [+]”. Regarding `CNC(=O)c1cccnc1` [NICOTINYL METHYLAMIDE], the Activity result in data set [3] was “inhibitor [+]”. For `CCN(CC)CCNC(=O)c1ccc(N)cc1` [PROCAINAMIDE], the Activity entry in data set [4] was “inhibitor [+]”.

B1: Solute carrier family 22 member 1 (Rattus norvegicus) (protein)
chain: MPTVDDVLEQVGEFGWFQKQAFLLLCLISASLAPIYVGIVFLGFTPGHYCQNPGVAELSQRCGWSQAEELNYTVPGLGPSDEASFLSQCMRYEVDWNQSTLDCVDPLSSLVANRSQLPLGPCEHGWVYDTPGSSIVTEFNLVCGDAWKVDLFQSCVNLGFFLGSLVVGYIADRFGRKLCLLVTTLVTSVSGVLTAVAPDYTSMLLFRLLQGMVSKGSWVSGYTLITEFVGSGYRRTTAILYQMAFTVGLVGLAGVAYAIPDWRWLQLAVSLPTFLFLLYYWFVPESPRWLLSQKRTTRAVRIMEQIAQKNGKVPPADLKMLCLEEDASEKRSPSFADLFRTPNLRKHTVILMYLWFSCAVLYQGLIMHVGATGANLYLDFFYSSLVEFPAAFIILVTIDRIGRIYPIAASNLVTGAACLLMIFIPHELHWLNVTLACLGRMGATIVLQMVCLVNAELYPTFIRNLGMMVCSALCDLGGIFTPFMVFRLMEVWQALPLILFGVLGLTAGAMTLLLPETKGVALPETIEEAENLGRRKSKAKENTIYLQVQTGKSSST
In the case of B1, the Km in data set [5] amounted to 42 µM.
